Laboratory results: PubChem BioAssay AID256 (DTP/NCI, 2004)
Several values for one entry are separate records, joined by “and”; a condition that tells them apart may be missing. Equal entries are not always repeated. Inconclusive results and toxic doses are left out. How the source made its calls: active means survival T/C of 150% or more; inactive means T/C below 125% in these data.

System: CD2F1 mice, L1210 leukemia ip, survival T/C
Assay: NCI In Vivo Anticancer Drug Screen. Data for tumor model L1210 Leukemia (intraperitoneal) in CD2F1 (CDF1) mice
Conditions: endpoint: mean survival time, higher = longer survival
Summary of the method: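 Activity against a transplanted murine tumor was judged by comparing the compound group with a vehicle group. The outcome in the treated animals was divided by that in the controls.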

[1] = dose: 100.0 mg/kg/injection, schedule: Q01DX001 (ip), vehicle: Klucel (hydroxypropylcellulose) (HPC)
[2] = dose: 200.0 mg/kg/injection, schedule: Q01DX001 (ip), vehicle: Klucel (hydroxypropylcellulose) (HPC)
[3] = dose: 100.0 mg/kg/injection, schedule: Q01DX009 (ip), vehicle: saline with Tween-80
[4] = dose: 200.0 mg/kg/injection, schedule: Q01DX009 (ip), vehicle: saline with Tween-80
[5] = dose: 400.0 mg/kg/injection, schedule: Q01DX009 (ip), vehicle: saline with Tween-80
[6] = dose: 100.0 mg/kg/injection, schedule: Q04DX003 (ip), vehicle: saline with Tween-80
[7] = dose: 200.0 mg/kg/injection, schedule: Q04DX003 (ip), vehicle: saline with Tween-80
[8] = dose: 400.0 mg/kg/injection, schedule: Q04DX003 (ip), vehicle: saline with Tween-80
[9] = dose: 50.0 mg/kg/injection, schedule: Q01DX009 (ip), vehicle: Klucel (hydroxypropylcellulose) (HPC)
[10] = dose: 100.0 mg/kg/injection, schedule: Q01DX009 (ip), vehicle: Klucel (hydroxypropylcellulose) (HPC)

Measured: T/C

CC(=O)Nc1cccc(/C=C/C=C/c2cccc([N+](=O)[O-])c2)c1
inactive: [1] 103 % of control | [2] 97 % of control | dose: 400.0 mg/kg/injection, schedule: Q01DX001 (ip), vehicle: Klucel (hydroxypropylcellulose) (HPC) 90 % of control

C=CC(=C)CCC=C(C)C
inactive: dose: 50.0 mg/kg/injection, schedule: Q01DX009 (ip), vehicle: acetone 96 % of control | dose: 100.0 mg/kg/injection, schedule: Q01DX009 (ip), vehicle: acetone 91 % of control | dose: 200.0 mg/kg/injection, schedule: Q01DX009 (ip), vehicle: acetone 96 % of control

CN1C(=O)[N+]2(CCCCC2)N=C1[O-]
inactive: [3] 96 % of control | dose: 100.0 mg/kg/injection, schedule: Q04DX003 (ip), vehicle: saline 91 % of control | [4] 102 % of control | dose: 200.0 mg/kg/injection, schedule: Q04DX003 (ip), vehicle: saline 97 % of control | [5] 106 % of control | dose: 400.0 mg/kg/injection, schedule: Q04DX003 (ip), vehicle: saline 95 % of control

O=C1OC(=O)c2c1ccc1ccc(Cl)cc21
inactive: [3] 102 % of control | [4] 96 % of control

O=Cc1n[nH]nc1-c1ccccc1
inactive: [3] 94 % of control | [6] 98 % of control | [4] 100 % of control | [7] 101 % of control | [5] 103 % of control | [8] 95 % of control

COc1ccc(S(=O)[O-])cc1.C[c-]1[c-][c-][c-][c-]1.[C-]#[O+].[C-]#[O+].[Fe+6]
inactive: dose: 6.25 mg/kg/injection, schedule: Q04DX002 (ip), vehicle: other 95 % of control | dose: 12.5 mg/kg/injection, schedule: Q04DX002 (ip), vehicle: other 114 % of control | dose: 25.0 mg/kg/injection, schedule: Q04DX002 (ip), vehicle: other 100 % of control

CCCCCCCCCCNC(=O)C[n+]1cccc(C(=O)NCc2ccccc2)c1
inactive: dose: 12.5 mg/kg/injection, schedule: Q01DX009 (ip), vehicle: saline sonified 90 % of control | dose: 12.5 mg/kg/injection, schedule: Q04DX003 (ip), vehicle: saline sonified 104 % of control | dose: 25.0 mg/kg/injection, schedule: Q04DX003 (ip), vehicle: saline sonified 104 % of control | dose: 50.0 mg/kg/injection, schedule: Q04DX003 (ip), vehicle: saline sonified 101 % of control

[C-]#[O+].[C-]#[O+].[C-]#[O+].[C-]#[O+].[C-]#[O+].[I][Re]
inactive: dose: 50.0 mg/kg/injection, schedule: Q04DX002 (ip), vehicle: other 123 % of control

O=C1C=CC(=O)N1c1nccs1
inactive: [3] 91 % of control | [4] 95 % of control | [5] 95 % of control

NC(=S)N/N=C/c1ccc(I)cn1
inactive: dose: 100.0 mg/kg/injection, schedule: Q04DX002 (ip), vehicle: saline with Tween-80 93 % of control | dose: 200.0 mg/kg/injection, schedule: Q04DX002 (ip), vehicle: saline with Tween-80 93 % of control | dose: 400.0 mg/kg/injection, schedule: Q04DX002 (ip), vehicle: saline with Tween-80 93 % of control

CC12CCC3C(CCC4CCCCC43C)C1CC/C2=N\O (stereo not given)
inactive: dose: 100.0 mg/kg/injection, schedule: Q04DX003 (sc), vehicle: steriod suspending solution 96 % of control | dose: 200.0 mg/kg/injection, schedule: Q04DX003 (sc), vehicle: steriod suspending solution 104 % of control | dose: 400.0 mg/kg/injection, schedule: Q04DX003 (sc), vehicle: steriod suspending solution 89 % of control

O=C(O)c1cc2c3ccccc3ncc2c2ccccc12
inactive: [6] 94 % of control | [7] 100 % of control | [8] 101 % of control

c1ccc(CN2CCOC2)cc1
inactive: dose: 12.5 mg/kg/injection, schedule: Q01DX009 (ip), vehicle: saline 95 % of control and 101 % of control | dose: 25.0 mg/kg/injection, schedule: Q01DX009 (ip), vehicle: saline 97 % of control and 101 % of control | dose: 50.0 mg/kg/injection, schedule: Q01DX009 (ip), vehicle: saline 100 % of control and 106 % of control | dose: 100.0 mg/kg/injection, schedule: Q01DX009 (ip), vehicle: saline 104 % of control and 106 % of control | dose: 200.0 mg/kg/injection, schedule: Q01DX009 (ip), vehicle: saline 95 % of control and 106 % of control

CCCCn1c(C)nc2c(N)cc(C(F)(F)F)cc21
inactive: dose: 12.5 mg/kg/injection, schedule: Q01DX009 (ip), vehicle: Klucel (hydroxypropylcellulose) (HPC) 100 % of control | dose: 25.0 mg/kg/injection, schedule: Q01DX001 (ip), vehicle: Klucel (hydroxypropylcellulose) (HPC) 96 % of control | dose: 25.0 mg/kg/injection, schedule: Q01DX009 (ip), vehicle: Klucel (hydroxypropylcellulose) (HPC) 91 % of control | dose: 25.0 mg/kg/injection, schedule: Q04DX003 (ip), vehicle: Klucel (hydroxypropylcellulose) (HPC) 96 % of control | dose: 50.0 mg/kg/injection, schedule: Q01DX001 (ip), vehicle: Klucel (hydroxypropylcellulose) (HPC) 102 % of control | [9] 100 % of control | dose: 50.0 mg/kg/injection, schedule: Q04DX003 (ip), vehicle: Klucel (hydroxypropylcellulose) (HPC) 100 % of control | [1] 97 % of control | [10] 102 % of control | dose: 100.0 mg/kg/injection, schedule: Q04DX003 (ip), vehicle: Klucel (hydroxypropylcellulose) (HPC) 93 % of control | [2] 94 % of control | dose: 200.0 mg/kg/injection, schedule: Q04DX003 (ip), vehicle: Klucel (hydroxypropylcellulose) (HPC) 100 % of control

COC1OC(CN=[N+]=[N-])C(N=[N+]=[N-])C(OS(C)(=O)=O)C1OS(C)(=O)=O (stereo not given)
inactive: [3] 95 % of control | [4] 95 % of control | [5] 90 % of control

CCOC(=O)N(Cl)Cl
inactive: dose: 12.5 mg/kg/injection, schedule: Q04DX003 (ip), vehicle: saline 102 % of control

CCCCCC(C)NCCOC(=O)c1ccccc1 (stereo not given)
inactive: dose: 75.0 mg/kg/injection, schedule: Q01DX001 (ip), vehicle: saline 103 % of control | dose: 150.0 mg/kg/injection, schedule: Q01DX001 (ip), vehicle: saline 100 % of control | dose: 300.0 mg/kg/injection, schedule: Q01DX001 (ip), vehicle: saline 108 % of control

Cc1ccc(P(=S)(c2ccccc2)c2ccccc2)c2ccccc12
inactive: dose: 100.0 mg/kg/injection, schedule: Q01DX001 (ip), vehicle: saline 104 % of control | dose: 200.0 mg/kg/injection, schedule: Q01DX001 (ip), vehicle: saline 101 % of control | dose: 400.0 mg/kg/injection, schedule: Q01DX001 (ip), vehicle: saline 95 % of control

Cc1ccccc1C(C)C
inactive: [6] 101 % of control | [7] 97 % of control | [8] 101 % of control

N#Cc1cnc(N)[nH]c1=O
inactive: [9] 88 % of control | [10] 88 % of control | dose: 200.0 mg/kg/injection, schedule: Q01DX009 (ip), vehicle: Klucel (hydroxypropylcellulose) (HPC) 91 % of control

CCOC(=O)CC(=O)c1ccccc1SC
inactive: [3] 98 % of control | [4] 96 % of control | [5] 96 % of control

C=CC1C2C=CC(CC2)C1O (stereo not given)
inactive: [6] 98 % of control | [7] 101 % of control | [8] 104 % of control

O=c1[nH]cc(N=Cc2ccccc2Cl)c(=O)[nH]1.[Cl][Pt][Cl]
inactive: dose: 3.13 mg/kg/injection, schedule: Q04DX003 (ip), vehicle: distilled water + Tween-80 94 % of control | dose: 6.25 mg/kg/injection, schedule: Q04DX003 (ip), vehicle: distilled water + Tween-80 97 % of control | dose: 12.5 mg/kg/injection, schedule: Q04DX003 (ip), vehicle: distilled water + Tween-80 88 % of control | dose: 25.0 mg/kg/injection, schedule: Q04DX003 (ip), vehicle: distilled water + Tween-80 96 % of control | dose: 50.0 mg/kg/injection, schedule: Q04DX003 (ip), vehicle: distilled water + Tween-80 96 % of control | dose: 100.0 mg/kg/injection, schedule: Q04DX003 (ip), vehicle: distilled water + Tween-80 103 % of control | dose: 200.0 mg/kg/injection, schedule: Q04DX003 (ip), vehicle: distilled water + Tween-80 94 % of control

O=C1NC(=O)/C(=C/c2ccccc2)N1
inactive: dose: 75.0 mg/kg/injection, schedule: Q04DX003 (ip), vehicle: saline sonified 100 % of control | dose: 150.0 mg/kg/injection, schedule: Q04DX003 (ip), vehicle: saline sonified 105 % of control | dose: 300.0 mg/kg/injection, schedule: Q04DX003 (ip), vehicle: saline sonified 105 % of control

O=S(=O)(c1ccccc1)N1CN2CCN(C2)C1
inactive: dose: 12.5 mg/kg/injection, schedule: Q01DX009 (ip), vehicle: saline with Tween-80 95 % of control and 110 % of control | dose: 25.0 mg/kg/injection, schedule: Q01DX009 (ip), vehicle: saline with Tween-80 97 % of control and 100 % of control | dose: 50.0 mg/kg/injection, schedule: Q01DX009 (ip), vehicle: saline with Tween-80 102 % of control and 106 % of control | [3] 101 % of control and 111 % of control | [4] 117 % of control and 107 % of control | [5] 117 % of control and 105 % of control
